Columns and labels:
[1] = test system: human monocytic cell line THP-1; experiment: IL-6 production inhibitory effect of BAFF in IFNγ-precultured THP-1 cells (Example 2); assay type: cell-based
Procedure: In 24-well plates (manufactured by Corning Inc.) in a RPMI-1640 culture medium (produced by ATCC) containing 10% fetal bovine serum (produced by JRH Biosciences), 5×10^5 cells of human monocytic leukemia cell line THP-1 (obtained from a bioresource bank, Japanese Collection of Research Bioresource) were seeded per well. IFNγ (interferon γ, produced by BD Pharmingen) was added to a final concentration of 200 ng/mL and cultured in a 5% CO2 environment at 37° C. After four days of culture, the culture broth in each well was removed and the cells were washed twice with the culture medium, followed by addition of the culture medium containing a final concentration of 2 μg/mL of recombinant human soluble BAFF (produced by Chemicon), and respective test compounds were added to a final concentration of 20 μM or 2 μM to continue the culture in the same conditions. After three days of culture, the culture supernatant was collected to determine the IL-6 content in the supernatant by ELISA. For ELISA, mouse anti-human IL-6 antibody (produced by BD Pharmingen), biotin-labeled anti-human IL-6 antibody (produced by BD Pharmingen), and HRP-labeled streptavidin (produced by BD Pharmingen) were used. The test compound groups were used by purchasing from Asinex. In the test system, Compound 27 (BIK-13) in PTL 1 was used as a positive control (compound with inhibitory action on IL-6 production by monocytic cells). BIK-13 was the same as the compound of ADM 12880656 by Asinex Japan Inc.
In the presence of 200 ng/mL recombinant human IFNγ (same as Example 1) (entire culture scale of 24-well culture plates at 2 mL/well), 5×10^5 cells of human monocytic cell line THP-1 (same as Example 1) were cultured using a 10% FBS/RPMI 1640 culture medium in a 5% CO2 environment at 37° C. for four days (96 hours). Four days later, an operation of removing the supernatant, adding a new medium, leaving it still in an incubator, and removing the supernatant was repeated twice. After removing the supernatant, recombinant human BAFF (2 μg/mL) was dissolved together with Compound A (ADM 12880492, Asinex Japan Inc.) or Compound B (ADM 12880696, Asinex Japan Inc.) in a medium and added to the culture wells to be cultured for three days. Three days later, the culture supernatant was collected to determine the IL-6 content in the culture supernatant by IL-6 specific ELISA. As a control, instead of Compound A or Compound B, BIK-13 was used.

MRL/lpr mice = experiment: Anti-dsDNA antibody titer in blood of MRL/lpr mice (Example 6); assay type: in vivo
From the text: MRL/lpr mice (purchased from Charles River Laboratories Japan, Inc.) were used as disease model (may also be referred to as collagen disease model or systemic lupus erythematosus (SLE) model) mice developing inflammatory diseases at a high rate and developing multiple autoimmune phenomena. Approximately 80% or more of the MRL/lpr mice develop systemic vasculitis around four to five months old. In addition, it is also known that the same individual spontaneously develops, not only vasculitis, but also glomerulonephritis, arthritis, sialadenitis, and the like (J. Jpn. Coll. Angiol., 2009, 49 11-16.).
Experiments were performed as follows: • Group 1: administered a physiological saline solution only (saline); • Group 2: administered 0.04 mg/kg of Compound A; • Group 3: administered 0.2 mg/kg of Compound A; • Group 4: administered 1 mg/kg of Compound A. […]
The blood was collected over time (0 w, 4 w, 8 w, 12 w, and 16 w) measure the anti-dsDNA antibody titers in the blood. The anti-dsDNA antibody is a kind of antinuclear antibody and is known to be frequently and specifically detected in the serum of SLE patients.
The anti-dsDNA antibody titers in the blood were measured with “LBIS™ anti-dsDNA mice ELISA KIT” (AKRDO-061, produced by Fujifilm Corp.). […]

NZB/WF1 mice = experiment: Urine protein in NZB/WF1 mice (Example 8); assay type: in vivo
Procedure: Present Example was performed simultaneously with Example 7 using NZB/WF1 mice. Except for the following exceptions, present Example was performed by the same materials and method as Example 7 above.
The urine was collected over time (0 w, 4 w, 7 w, 12 w, 16 w, and 18 w) to evaluate the protein content […] in the urine using urine protein test strips. It is known that SLE patients are prone to develop lupus nephritis and a higher concentration of protein is contained in the urine of incident patients than the urine of normal healthy individuals.
The level of the protein content in the mouse urine was numerically expressed using Albustix (Ames urine protein test strips, produced by Siemens Healthcare K.K.) as urine protein test strips based on the following criteria. • negative: 0 • ±: 0.5 • +: 1 • 2+: 2 • 3+: 3

[2] = test system: human peripheral blood monocytes; experiment: IL-6 production inhibitory effect of BAFF from human peripheral blood monocytes (Example 3); assay type: cell-based
Procedure: Monocytes were isolated from normal healthy human peripheral blood using CD14-microbeads. In the presence of 2 μg/mL recombinant human BAFF (same as Example 2) and Compound A (2 μM and 10 μM) (entire culture scale of 24-well culture plates at 2 mL/well), 5×10^5 of the isolated monocytes were cultured using a 10% FBS/RPMI 1640 culture medium in a 5% CO2 environment at 37° C. for four days. Four days later, the supernatant was removed to determine the IL-6 content in the culture supernatant by IL-6 specific ELISA. For comparison, experiments using BIK-13 instead of Compound A were also performed.

How did the “IL-6 production inhibitory effect compared with the control” value ([1]; 0.04 μM, 0.2 μM and 1 μM together with 2 μg/mL human BAFF, 3 days, ELISA) turn out when `Cc1c(C)n(Cc2ccccc2)c2ncnc(OC3CCN(CC(=O)NCC4CC4)CC3)c12` [Compound A, 2-[4-{(7-benzyl-5,6-dimethyl-7H-pyrrolo[2,3-d]pyrimidin-4-yl)oxy}piperidin-1-yl]-N(cyclopropylmethyl)acetamide] was run?
Its value is “significant (p<0.001) IL-6 production inhibitory effects”.

What about the “relative amount of IL-6 production” value ([1]; 0.04 μM, control (BAFF only) = 100%) of the same molecule?
The value was 25±1.42%.

What about the “IL-6 production inhibitory effect, times stronger than BIK-13” value ([1]; THP-1 system of Example 2) of the same molecule?
Its value is “at least 750 times”.

What about the “anti-dsDNA antibody titer inhibitory effect compared with saline” value (MRL/lpr mice; 0.2 mg/kg and 1 mg/kg, 16th week) of the same molecule?
Its value is “significant (respectively, p<0.05) anti-dsDNA antibody titer inhibitory effects”.

What about the “anti-dsDNA antibody titers in the blood compared with saline” value (MRL/lpr mice; 0.04, 0.2 and 1 mg/kg, intravenous injection five times a week, 8 w or later) of the same molecule?
The value was “tendency of decrease”.

What about the “protein content in the urine compared with saline” value (NZB/WF1 mice; 0.2 and 1 mg/kg, 12 w or later, urine protein test strips) of the same molecule?
Its value is “tendency of decrease”.

What about the “inhibitory effect on the protein content in the urine compared with saline” value (NZB/WF1 mice; 12th week (1 mg/kg) and 18th week (0.2 mg/kg and 1 mg/kg)) of the same molecule?
Its value is “significant (respectively, p<0.05) inhibitory effects”.

And the “IL-6 production inhibitory effect compared with the control” value ([2]; 2 μM and 10 μM with 2 μg/mL human BAFF, 4 days)?
The value was “significant (p<0.001) IL-6 production inhibitory effects”.

What about the “relative amount of IL-6 production” value ([2]; 2 μM, control = 100%) of the same molecule?
The value was 66.4±0.283%.

What about the “IL-6 production inhibitory effect, times stronger than BIK-13” value ([2]; monocytes of normal healthy individuals) of the same molecule?
The value was “at least 5 times”.
